Assay results from publication PMC3082897 (2010).
Like-named read-outs stand apart in the source and are kept apart here.

What was measured:
[1] = target: T1, UMPKmt (uridine monophosphate kinase, Rv2883c) (Mycobacterium tuberculosis, UniProt P9WHK5); experiment: coupled spectrophotometric kinase assay; assay type: biochemical
Target sequence in this assay (P9WHK5 whole entry, looked up): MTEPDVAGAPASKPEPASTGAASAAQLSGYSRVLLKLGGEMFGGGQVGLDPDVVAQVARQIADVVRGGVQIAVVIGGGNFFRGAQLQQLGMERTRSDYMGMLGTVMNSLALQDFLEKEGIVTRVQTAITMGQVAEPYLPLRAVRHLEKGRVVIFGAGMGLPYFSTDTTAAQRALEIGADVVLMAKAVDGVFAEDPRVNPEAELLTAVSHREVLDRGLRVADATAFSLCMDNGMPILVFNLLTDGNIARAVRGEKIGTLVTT

[2] = target: T1, UMPKmt (uridine monophosphate kinase, Rv2883c); experiment: X-ray crystal structure; assay type: biochemical
Target sequence in this assay (P9WHK5 whole entry): as the sequence (P9WHK5 whole entry, looked up) above

[3] = target: T1, UMPKmt (uridine monophosphate kinase, Rv2883c); experiment: coupled spectrophotometric kinase assay; assay type: biochemical; remark: listed apart in the source
Target sequence in this assay (P9WHK5 whole entry, looked up): as above

[4] = target: T1, UMPKmt (uridine monophosphate kinase, Rv2883c); experiment: coupled spectrophotometric kinase assay; assay type: biochemical; remark: listed apart in the source
Target sequence in this assay (P9WHK5 whole entry, looked up): as above

[5] = system: O=c1ccn([C@@H]2O[C@H](COP(=O)(O)O)[C@@H](O)[C@H]2O)c(=O)[nH]1; experiment: purified protein

Molecule | IC50 [1] [µM] | other results
O=c1[nH]c(=O)n([C@@H]2O[C@H](COP(=O)(O)OP(=O)(O)OP(=O)(O)O)[C@@H](O)[C@H]2O)cc1Br [5Br-UTP] | 100 | 
O=c1[nH]c(=O)n([C@@H]2O[C@H](COP(=O)(O)OP(=O)(O)OP(=O)(O)O)[C@@H](O)[C@H]2O)cc1I [5I-UTP] | 20 | 
Nc1nc2c(ncn2[C@@H]2O[C@H](COP(=O)(O)OP(=O)(O)OP(=O)(O)O)[C@@H](O)[C@H]2O)c(=O)[nH]1 [GTP] |  | EC50 [2]: 100 µM
O=c1ccn([C@@H]2O[C@H](COP(=O)(O)OP(=O)(O)OP(=O)(O)O)[C@@H](O)[C@H]2O)c(=O)[nH]1 [UTP] |  | IC50 [3]: 100 µM
Nc1nc2c(ncn2[C@H]2C[C@H](O)[C@@H](COP(=O)(O)OP(=O)(O)OP(=O)(O)O)O2)c(=O)[nH]1 [dGTP] |  | coupled spectrophotometric kinase assay (activation, similar to GTP) [4]: dGTP, Mant-GTP and 6-methylthio GTP exhibited similar properties to GTP in terms of both affinity and extent of activation
Cc1cn([C@H]2C[C@H](O)[C@@H](COP(=O)(O)OP(=O)(O)OP(=O)(O)O)O2)c(=O)[nH]c1=O [dTTP] | 400 | 
O=c1ccn([C@H]2C[C@H](O)[C@@H](COP(=O)(O)OP(=O)(O)OP(=O)(O)O)O2)c(=O)[nH]1 [dUTP] | 240 | 
UMPKmt (uridine monophosphate kinase, Rv2883c) (Mycobacterium tuberculosis H37Rv) |  | Km [5]: 19.6 ± 1.8 µM
